# From patent US12116388B2, “Amylin receptor agonists” (Novo Nordisk A/S, priority 2022, dated 2024)
# Read-outs that look alike come from different tables or passages of the source. Starred links: 1 amine or outer side, 2 acyl side, 3 side chain; linkers in the order of their positions; H or OH if unused. Residues, ends and D or L forms follow the SMILES beside them. *: point of attachment. C20 diacid = O=C(O)CCCCCCCCCCCCCCCCCCC(=O)*; γGlu = O=C(O)[C@H](CCC(=O)[*:2])N[*:1]
# How the values were obtained:
# [1] = endogenous amylin, background statement; cited from earlier work
# [2] = target: T1, human calcitonin receptor (hCTR) (Homo sapiens, UniProt P30988); experiment: Human calcitonin receptor (hCTR) in vitro potency assay, CRE-luciferase reporter in BHK cells; format: cell-based; settings: BHK hCTR/CRE-Luc cells, 3 hours incubation, assay buffer with 1% ovalbumin; read-out: hCalcR potency, EC50
# T1 construct: host or cells: BHK (Baby Hamster Kidney), Hollex-1 cell line
# T1 sequence (P30988 25-474): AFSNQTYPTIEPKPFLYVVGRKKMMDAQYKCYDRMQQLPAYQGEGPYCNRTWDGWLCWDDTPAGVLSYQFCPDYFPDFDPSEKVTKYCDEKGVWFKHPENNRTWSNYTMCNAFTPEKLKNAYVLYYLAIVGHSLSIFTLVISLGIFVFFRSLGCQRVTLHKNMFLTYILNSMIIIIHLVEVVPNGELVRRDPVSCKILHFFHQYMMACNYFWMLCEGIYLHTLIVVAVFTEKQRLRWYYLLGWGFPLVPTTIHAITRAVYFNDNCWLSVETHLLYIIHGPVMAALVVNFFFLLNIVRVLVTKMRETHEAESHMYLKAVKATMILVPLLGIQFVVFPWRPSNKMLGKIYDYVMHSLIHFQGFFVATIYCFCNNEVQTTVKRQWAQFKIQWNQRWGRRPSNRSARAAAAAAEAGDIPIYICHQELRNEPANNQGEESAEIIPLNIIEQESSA
# In short: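 BHK cells stably co-expressing human calcitonin receptor and a CRE-luciferase reporter, seeded the day before, were exposed to 7-fold serial dilutions (7 concentrations, often starting near 10 nM) in DMEM/HEPES/1% ovalbumin buffer for 3 h at 37 °C. Luminescence was then read after SteadyLite Plus addition.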
# [3] = Oral pharmacokinetic profiles in Beagle dogs (SNAC tablets); format: in vivo; settings: oral tablet: 3 mg compound, 300 mg SNAC, 7.7 mg magnesium stearate
# Description: To be able to evaluate oral exposure following tablet dosing, tablet compositions comprising the test substance and SNAC (sodium N-(8-(2-hydroxybenzoyl)amino)caprylate) were prepared by mixing test substance with roller compacted SNAC and magnesium stearate as, e.g., described in WO 2019/149880.
# This assay was performed to measure the oral bioavailability of a compound. The assay determined the exposure of test compound following oral administration in Beagle dogs as described by relevant pharmacokinetic parameters and plasma concentration curves.
# Preparation of tablets for oral administration: tablets containing test compound used for the assay described herein were immediate release SNAC-based tablets. The test compound was spray-dried as neutral sodium salt (pH 7-8). Dry granulation was carried out by roller compaction on a Gerteis MINI-PACTOR. Tablets containing 3 mg test compound, 300 mg sodium N-(8-(2-hydroxybenzoyl)amino)caprylate (SNAC) and 7.7 mg magnesium stearate were produced on at Kilian Style One using 7.2×12 mm punches.
# Determination of the absorption following oral administration: eight (8) male Beagle dogs, 1 to 8 years of age and weighing approximately 10-15 kg at the start of the studies, were used. The dogs were group-housed in pens (12 hours light:12 hours dark), and fed individually and restrictedly once daily with Royal Canin Medium Adult dog (Royal Canin Products, China Branch, or Brogaarden A/S, Denmark). Exercise and group social were permitted daily, whenever possible. The dogs were used for repeated pharmacokinetic studies with a suitable wash-out period between successive dosing. An appropriate acclimatisation period was given prior to initiation of the first pharmacokinetic study. All handling, dosing and blood sampling of the animals were performed by trained and skilled staff. Before the studies the dogs were fasted overnight and from 0 to 4 h after dosing. Besides, the dogs were restricted to water 1 hour before dosing until 4 hours after dosing, but otherwise had ad libitum access to water during the whole period.
# Tablets containing the test compound were administered in the following manner: 10 min prior to tablet administration the dogs were dosed subcutaneously with approximately 3.2 nmol/kg of glucagon. The tablets were placed in the back of the mouth of the dog to prevent chewing. The mouth was then closed, and 10 mL of tap water was given by a syringe to facilitate swallowing of the tablet. Blood was sampled at predefined time points for up till 288 hours after dosing to adequately cover the full plasma concentration-time absorption profile of the compound. For each blood sampling time point approximately 1.2 mL of whole blood was collected in a 1.5 mL EDTA coated tube, and the tube was gently turned to allowing mixing of the sample with the EDTA. Then, the blood samples were kept on ice until centrifugation (4 min, 4° C., 4000 rpm). Plasma was pipetted into Micronic tubes on dry ice and kept at −20° C. until analysis. Blood samples were taken as appropriate, for example from a venflon in the cephalic vein in the front leg for the first 2 hours and then with syringe from the jugular vein for the rest of the time points (the first few drops were allowed to drain from the venflon to avoid heparin saline from the venflon in the sample).
# Bioanalysis was carried out as follows: plasma concentrations of test compound were assayed by plasma protein precipitation and analysed by liquid chromatography-mass spectrometry (LC-MS). Calibrators were prepared by spiking blank dog plasma with analytes to reach the final concentrations in the range typically from 0.5 to 200 nM. Calibrators, plasma blanks or study samples were prepared for LC-MS by protein precipitation by adding 3 volumes of ethanol followed by centrifugation at 4000 rpm at 4° C. for 1 h. The supernatant was diluted with 2 volumes of Milli-Q water containing 0.1% formic acid before injection on the LC-MS system. […]
Compound,half-life [1] [h],EC50 [2] [pM],"half-life ([3]; male, dog, plasma, read-out: T½ (converted)) [h]",AUC/D [3] [kg·h/L],Cmax/D [3] [kg/L]
"amylin (KCNTATCATQRLANFLVHSSNNFGAILSSTNVGSNTY; listed as Homo sapiens) [Endogenous amylin, 37-amino acid long polypeptide hormone co-secreted with insulin from the pancreatic beta-cell]",0.25 to 0.333,–,–,–,–
"CC[C@H](C)[C@H](NC(=O)[C@@H]1CCCN1C(=O)CNC(=O)[C@H](Cc1ccccc1)NC(=O)[C@H](CC(N)=O)NC(=O)[C@H](CC(=O)O)NC(=O)[C@H](CO)NC(=O)[C@H](CO)NC(=O)[C@H](Cc1c[nH]cn1)NC(=O)[C@H](Cc1c[nH]cn1)NC(=O)[C@H](CC(C)C)NC(=O)[C@H](Cc1ccccc1)NC(=O)[C@H](CCC(=O)O)NC(=O)[C@H](C)NC(=O)[C@H](CC(C)C)NC(=O)[C@H](CCCNC(=N)N)NC(=O)[C@H](C)NC(=O)[C@@H](NC(=O)[C@H](CCC(N)=O)NC(=O)[C@H](C)NC(=O)[C@@H](NC(=O)[C@H](CO)NC(=O)[C@H](CC(C)C)NC(=O)[C@H](Cc1c[nH]cn1)NC(=O)[C@H](CO)NC(=O)[C@H](C)NC(=O)CC[C@H](NC(=O)CCCCCCCCCCCCCCCCCCC(=O)O)C(=O)O)[C@@H](C)O)[C@@H](C)O)C(=O)N[C@@H](CC(C)C)C(=O)N1CCC[C@H]1C(=O)N1CCC[C@H]1C(=O)N[C@H](C(=O)N[C@@H](CC(=O)O)C(=O)N[C@H](C(=O)NCC(=O)N[C@@H](CO)C(=O)N[C@@H](CC(N)=O)C(=O)N[C@H](C(=O)N1CCC[C@H]1C(N)=O)[C@@H](C)O)C(C)C)[C@@H](C)O [Compound 2, N^1-[(4S)-4-carboxy-4-(19-carboxynonadecanoylamino)butanoyl]-[Ala1,Ser2,His3,Leu4,Ser5,Ala7,Gln8,Ala10,Glu14,His17,Asp21,Pro25,Pro28,Pro29,Asp31,Pro37]-human amylin] ({C20 diacid-γGlu}-ASHLSTAQTARLAEFLHHSSDNFGPILPPTDVGSNTP-NH2)",–,1.31,146,14.06,0.15
